Source: patent US9932324B2, “Substituted benzimidazolium compounds useful in the treatment of respiratory diseases” (Boehringer Ingelheim International GmbH, priority 2015, dated 2018)

Tests used:
[1] = biological target: T1, ENaC (Epithelial Sodium Channel) in mouse kidney M-1 cells (Mus musculus, UniProt Q61180+Q9WU38+Q9WU39); experiment: Ussing Chamber assay (short circuit current, amiloride sensitive I_SC); assay type: cell-based; details: apical administration, 37° C.
T1 construct: Mouse kidney M-1 cells were cultivated in DMEM containing 5% FCS and 5 μM dexamethasone; endogenous in cells; host or cells: mouse kidney M-1 cells
T1 sequence (Q61180 1-699): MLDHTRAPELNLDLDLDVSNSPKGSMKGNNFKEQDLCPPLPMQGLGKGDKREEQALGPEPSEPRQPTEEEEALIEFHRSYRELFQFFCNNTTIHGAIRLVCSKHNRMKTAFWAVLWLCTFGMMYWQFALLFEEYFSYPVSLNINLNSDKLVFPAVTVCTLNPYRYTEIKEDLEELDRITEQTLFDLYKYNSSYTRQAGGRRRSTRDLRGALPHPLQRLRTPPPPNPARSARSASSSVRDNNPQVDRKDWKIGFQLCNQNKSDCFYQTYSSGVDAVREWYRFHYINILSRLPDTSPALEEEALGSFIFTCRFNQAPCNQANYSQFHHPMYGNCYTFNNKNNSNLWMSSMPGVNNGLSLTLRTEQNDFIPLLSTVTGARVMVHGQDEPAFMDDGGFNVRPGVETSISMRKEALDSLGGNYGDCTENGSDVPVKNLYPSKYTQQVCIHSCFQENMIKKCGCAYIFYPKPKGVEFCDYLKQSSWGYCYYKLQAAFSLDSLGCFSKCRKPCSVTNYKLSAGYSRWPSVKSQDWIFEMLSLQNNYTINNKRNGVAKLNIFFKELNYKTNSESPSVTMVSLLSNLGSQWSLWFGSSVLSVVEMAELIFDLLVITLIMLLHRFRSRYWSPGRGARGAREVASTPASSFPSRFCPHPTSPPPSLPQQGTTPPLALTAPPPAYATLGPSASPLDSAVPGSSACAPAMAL
T1 sequence (Q9WU38 1-638): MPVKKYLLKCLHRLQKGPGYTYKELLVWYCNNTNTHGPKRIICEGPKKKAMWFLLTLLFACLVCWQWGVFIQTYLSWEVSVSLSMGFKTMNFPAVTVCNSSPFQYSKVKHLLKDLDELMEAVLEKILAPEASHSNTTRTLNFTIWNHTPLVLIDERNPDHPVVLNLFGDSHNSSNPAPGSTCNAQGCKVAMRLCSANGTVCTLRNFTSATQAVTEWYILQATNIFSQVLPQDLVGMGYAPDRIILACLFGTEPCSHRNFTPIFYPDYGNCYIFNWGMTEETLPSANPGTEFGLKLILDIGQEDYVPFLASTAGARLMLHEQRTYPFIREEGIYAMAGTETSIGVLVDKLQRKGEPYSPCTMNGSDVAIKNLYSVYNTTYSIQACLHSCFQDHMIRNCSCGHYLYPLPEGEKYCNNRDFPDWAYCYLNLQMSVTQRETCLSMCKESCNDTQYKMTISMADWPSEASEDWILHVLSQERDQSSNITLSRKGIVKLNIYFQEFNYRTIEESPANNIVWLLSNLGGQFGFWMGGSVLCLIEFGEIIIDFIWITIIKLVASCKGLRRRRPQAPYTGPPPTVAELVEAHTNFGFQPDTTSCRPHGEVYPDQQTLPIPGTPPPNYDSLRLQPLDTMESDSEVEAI
T1 sequence (Q9WU39 1-655): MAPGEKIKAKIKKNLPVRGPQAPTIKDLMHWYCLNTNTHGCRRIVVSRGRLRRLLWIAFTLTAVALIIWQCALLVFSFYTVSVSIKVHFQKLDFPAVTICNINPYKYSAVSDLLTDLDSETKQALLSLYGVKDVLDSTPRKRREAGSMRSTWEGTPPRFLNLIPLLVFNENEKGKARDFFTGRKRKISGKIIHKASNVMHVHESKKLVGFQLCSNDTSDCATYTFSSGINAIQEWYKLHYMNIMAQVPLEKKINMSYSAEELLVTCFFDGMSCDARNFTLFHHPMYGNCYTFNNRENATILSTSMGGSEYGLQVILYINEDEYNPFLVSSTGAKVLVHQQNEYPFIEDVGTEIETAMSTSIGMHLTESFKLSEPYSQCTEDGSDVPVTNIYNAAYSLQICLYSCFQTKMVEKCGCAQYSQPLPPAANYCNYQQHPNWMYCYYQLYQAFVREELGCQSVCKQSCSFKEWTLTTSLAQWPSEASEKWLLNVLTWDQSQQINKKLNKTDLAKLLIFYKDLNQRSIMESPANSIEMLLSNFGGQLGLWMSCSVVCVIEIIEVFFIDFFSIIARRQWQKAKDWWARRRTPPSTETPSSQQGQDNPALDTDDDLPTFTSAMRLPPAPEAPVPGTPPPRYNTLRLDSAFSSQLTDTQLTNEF
Protocol: The IC50 values of the example compounds given above were determined in the Ussing Chamber assay.
Ussing Chamber: Mouse kidney M-1 cells were cultivated in DMEM containing 5% FCS and 5 μM dexamethasone for 10 to 12 days on polyester transwell filters. Filters were inserted into a teflon-coated well-plate which fit into the ussing chamber system. Prior to measurement the medium of M-1 cells was replaced with Caco-2 transport buffer (Invitrogen, Germany). During measurements, the Ussing chamber temperature was kept at 37° C. Short circuit currents (I_sc) were measured in the voltage-clamp mode with the software package Lab View for data acquisition and analysis. The transepithelial electrical resistance (TEER) was determined by the application of voltage steps of ±5 mV every 5 sec. Compounds were administered at a final concentration of 3 μM or at increasing concentrations (1-3-10 μM) to the apical solution. At the end of each experiment the amiloride sensitive I_SC was measured by adding 3 μM amiloride to the apical compartment. Results are expressed as inhibition in percent of the amiloride effect or as IC50.

[2] = Permeability in CALU-3 cells; assay type: in vitro ADME; details: human, CALU-3 monolayers, pH 7.4, 37° C., 10 μM compound; for Papp A→B at 90 min, 10 μM: apical-to-basal; for Papp B→A at 90 min, 10 μM: basal-to-apical
Protocol: Permeability in CALU-3 Cells:
Permeability measurements across polarized, confluent CALU-3 cell monolayers grown on permeable filter supports are used to provide information on the potential of a compound to pass the lung epithelium. Apparent permeability coefficients (Papp) of the compounds across the CALU-3 cell monolayers are measured (pH 7.4, 37° C.) in apical-to-basal (AB) and basal-to-apical (BA) transport direction.
CALU-3 cells (1-2×10^5 cells/1 cm^2 area) are seeded on filter inserts (Costar transwell polycarbonate filters, 0.4 μm pore size) and cultured (for 10-12 days DMEM) until tight monolayers are formed. Compounds of interest are dissolved in appropriate solvent (DMSO, 10 mM stock solution). Stock solutions are diluted with HTP-4 buffer (128.13 mM NaCl, 5.36 mM KCl, 1 mM MgSO4, 1.8 mM CaCl2, 4.17 mM NaHCO3, 1.19 mM Na2HPO4 x 7H2O, 0.41 mM NaH2PO4xH2O, 15 mM HEPES, 20 mM glucose, 0.25% BSA, pH 7.4) to prepare the transport solutions (10 μM compound, final DMSO <=0.5%). The transport solution (TL) is applied to the apical or basolateral donor side for measuring A-B or B-A permeability (3 filter replicates), respectively. The receiver side contains the same buffer as the donor side. After 30 min of accommodation, samples are collected at the start t0=0 min and at the end of the experiment tn=90 min from the donor and at 0, 30, 60, and 90 min also from the receiver chamber. Volume removed is […] by HTP-4 buffer. The compound concentration in the samples is measured by HPLC-MS/MS or scintillation counting. The permeability coefficient (Papp) and efflux ratio are calculated according to: Papp [cm/s]=(concentration receiver [nM]*volume receiver [mL]/time interval [sec])*(1/filter area)*(1/donor concentration [nM]).

IC50 [1] [nM] | Papp A→B at 90 min, 10 μM [2] [×10⁻⁶ cm/s] | Papp B→A at 90 min, 10 μM [2] [×10⁻⁶ cm/s] | Compound
3 | – | – | CCn1c(CNC(=O)c2nc(Cl)c(N)nc2N)[n+](CC)c2c(C(=O)NC3CCN(C(=O)OC(C)(C)C)CC3)cccc21 [Example 3.02]
5 | 0.08 | 0.1 | CCn1c(CNC(=O)c2nc(Cl)c(N)nc2N)[n+](CC)c2c(C(=O)NC3CCNCC3)cccc21.[Cl-] [Example 4.03]
31 | 0.3 | 0.5 | CC[n+]1c(CNC(=O)c2nc(Cl)c(N)nc2N)n(C[C@@H]2CCCO2)c2cccc(OCC(=O)N(C)Cc3nc(C)ccc3[O-])c21 [Example 1.03]
24 | 0.2 | 0.2 | CC[n+]1c(CNC(=O)c2nc(Br)c(N)nc2N)n(C[C@@H]2CCCO2)c2cccc(OCC(=O)N3C[C@H](O)[C@@H](O)C3)c21.O=C([O-])C(F)(F)F [Example 2.01]
6 | 0.04 | 0.06 | CCn1c(CNC(=O)c2nc(Cl)c(N)nc2N)[n+](CC)c2c(C(=O)NCCN(C)C)cccc21.[Cl-] [Example 3.05]
3 | 0.2 | 0.1 | CCn1c(CNC(=O)c2nc(Cl)c(N)nc2N)[n+](CC)c2c(C(=O)N3CCNCC3)cccc21.[Cl-] [Example 4.02]
16 | – | – | CC[n+]1c(CNC(=O)c2nc(Cl)c(N)nc2N)n(CCOCCO)c2cccc(OC(CO)CO)c21 [Example 5.01]
5 | 0.1 | 0.09 | CCn1c(CNC(=O)c2nc(Cl)c(N)nc2N)[n+](CC)c2c(C(=O)NCCCN)cccc21.Cl.[Cl-] [Example 6.01]
3 | – | – | CCn1c(CNC(=O)c2nc(Cl)c(N)nc2N)[n+](CC)c2c(C(=O)N3CCN(C(=O)OC(C)(C)C)CC3)cccc21 [Example 3.04]
1 | 0.3 | 0.3 | CC[n+]1c(CNC(=O)c2nc(Cl)c(N)nc2N)n(C[C@@H]2CCCO2)c2cccc(OCC(=O)NC3CCNCC3)c21.O=C(O)C(F)(F)F.O=C([O-])C(F)(F)F [Example 4.01]
2 | – | – | CCn1c(CNC(=O)c2nc(Cl)c(N)nc2N)[n+](CC)c2c(C(=O)N(C)Cc3nc(C)ccc3O)cccc21 [Example 3.01]
11 | – | – | CC[n+]1c(CNC(=O)c2nc(Cl)c(N)nc2N)n(CCOCCO)c2cccc(OCC(=O)NC3CCNCC3)c21 [Example 7.01]
36 | – | – | CC[n+]1c(CNC(=O)c2nc(Cl)c(N)nc2N)n(C[C@@H]2CCCO2)c2cccc(OCC(=O)N3C[C@H](O)[C@@H](O)C3)c21 [Example 1.01]
5 | – | – | CCn1c(CNC(=O)c2nc(Cl)c(N)nc2N)[n+](CC)c2c(C(=O)NCCCNC(=O)OC(C)(C)C)cccc21 [Example 3.03]
2 | – | – | CC[n+]1c(CNC(=O)c2nc(Cl)c(C)nc2N)n(C[C@@H]2CCCO2)c2cccc(OCC(=O)NC3CCN(C(=O)OC(C)(C)C)CC3)c21 [Example 1.07]
